Source: patent US10813919B2, “Use of histone deacetylase inhibitors for enhancing immunotherapies” (Indiana University Research and Technology Corporation, priority 2016, dated 2020)

Columns and labels:
[1] = tested on: Myeloid derived suppressor cells (G-MDSCs, M-MDSCs); assay: FACS analysis of G-MDSC and M-MDSC in tumor and blood; assay type: in vivo, Balb/c mice
Protocol: (§1) Tumor suspension and spleenocyte preparation: Live tumor sections were isolated from tumors, cut into small pieces, and digested with an enzyme cocktail solution from the mouse tumor dissociation kit (Miltenyi Biotec—130-096-730). Tumors were incubated with the enzyme cocktail for 30 minutes at 37° C. with agitation. The enzyme reaction was arrested using PBS, cells were spun at 300 g, 4° C. for 7 minutes, re-suspended in PBS and mashed through a 70 um cell strainer. Cells from these tumors were either used for flow cytometry analysis or further processed and used for functional analyses.
(§2) Cell staining and flow cytometry: Splenocytes, tumor cell suspensions, and peripheral blood cells were washed, blocked with Fc Block (anti-mouse CD16/32 mAb; BD Biosciences) at 4° C. for 15 minutes, and stained with fluorescence conjugated antibodies against surface markers: CD45 (clone 30-F11), CD11b (clone M1/70), Gr1 (clone RB6-8C5), Ly6C (clone AL-21), Ly6G (clone 1A8), F480 (clone BM8), CD8a (clone 53-6.7), CD4 (clone RM4-5) antibodies purchased from BioLegend, eBioscience or BD Biosciences. Cells were then fixed in Fixation/Permeabilization buffer (eBioscience) and stained with antibodies against intracellular proteins, including FoxP3 (NRRF-30) and Granzyme B (clone GB11). The antibodies were purchased from BD Biosciences, Biolegend, and R&D Systems and used in staining. Stained cells and isotype-control-stained cells, were assayed on a LSR4 or Fortessa flow cytometer (BD Biosciences). Data analysis was performed using the FlowJo (FlowJo LLC) and/or ModFit LT 4.1 software.

iNOS = assay: Fold change of iNOS in J774M cells; assay type: cell-based; settings: J774M cells treated with entinostat
[2] = tested on: T regulatory cells (CD4+FoxP3+); assay: FACS analysis of T regulatory cells in end-point blood and tumor samples; assay type: in vivo, Balb/c mice; settings: blood
Protocol: as §1
as §2, with “Stained cells and isotype-control-stained cells, were assayed on a LSR4 or Fortessa flow cytometer (BD Biosciences). Data analysis was performed using the FlowJo (FlowJo LLC) and/or ModFit LT 4.1 software.” left out

[3] = tested on: MDSC-like cell line J774M; assay: T cell suppression assay with entinostat treated J774M cells; assay type: cell-based; settings: J774M treated 24 hours in vitro, co-culture with pre-activated CD8+ T cells 68-72 hours
Protocol: The J774M cell line was cultured with DMEM (Corning) media with 10% fetal bovine serum (Corning) and 1% Pen/Strep (Life Technologies). Cells were incubated in 37° C. and 5% CO2. […] T cell isolation & activation: Whole spleens were harvested from naïve mice, mashed and passed through a 70 μm strainer. Cells were then washed, lysed with RBC lysis buffer (Affymetrix 00-4333-57), and cultured in RPMI medium with 10% FBS, Pen (100 units/ml)-Strep ([…]), 1 mM sodium pyruvate, […] non-essential amino-acids, 2 mM L-Glutamine, 55 μM BME, with anti-CD3 (eBioscience 16-0031-85) and anti-CD28 (eBioscience 5012503) for approximately 24 hours. CD8^+ T cells were then isolated using a CD8a^+ T cell isolation kit from Miltenyi Biotec (130-104-075), stained with CFSE (NC9759757), according to the manufacturer's protocol, and co-cultured with MDSCs as described below. T cell suppression assay: T cells (1×10^5; isolated with a CD8a^+ T cell isolation kit; Miltenyi Biotec) were cultured in plates with varying numbers of either G-MDSCs or M-MDSCs isolated from RENCA tumors for 16-18 hours. T cells isolated in the listed method were co-cultured with entinostat treated J774M cells for 68-72 hours. Cells were then harvested, stained and analyzed via FACS analysis.

[4] = tested on: G-MDSCs or M-MDSCs isolated from RENCA tumors; assay: T cell suppression assay, ex vivo, MDSCs isolated from RENCA tumors of treated mice; assay type: cell-based, mouse
Protocol: T cell isolation & activation: Whole spleens were harvested from naïve mice, mashed and passed through a 70 μm strainer. Cells were then washed, lysed with RBC lysis buffer (Affymetrix 00-4333-57), and cultured in RPMI medium with 10% FBS, Pen (100 units/ml)-Strep ([…]), 1 mM sodium pyruvate, […] non-essential amino-acids, 2 mM L-Glutamine, 55 μM BME, with anti-CD3 (eBioscience 16-0031-85) and anti-CD28 (eBioscience 5012503) for approximately 24 hours. CD8^+ T cells were then isolated using a CD8a^+ T cell isolation kit from Miltenyi Biotec (130-104-075), stained with CFSE (NC9759757), according to the manufacturer's protocol, and co-cultured with MDSCs as described below. MDSC Isolation: MDSCs were isolated from RENCA tumors of each group using Miltenyi Biotec's Myeloid Derived Suppressor Cell Isolation Kit (130-094-538) and co-cultured with isolated CD8^+ T cells in serially diluted concentrations. T cell suppression assay: T cells (1×10^5; isolated with a CD8a^+ T cell isolation kit; Miltenyi Biotec) were cultured in plates with varying numbers of either G-MDSCs or M-MDSCs isolated from RENCA tumors for 16-18 hours. T cells isolated in the listed method were co-cultured with entinostat treated J774M cells for 68-72 hours. Cells were then harvested, stained and analyzed via FACS analysis. Cell staining and flow cytometry: Splenocytes, tumor cell suspensions, and peripheral blood cells were washed, blocked with Fc Block (anti-mouse CD16/32 mAb; BD Biosciences) at 4° C. for 15 minutes, and stained with fluorescence conjugated antibodies against surface markers: CD45 (clone 30-F11), CD11b (clone M1/70), Gr1 (clone RB6-8C5), Ly6C (clone AL-21), Ly6G (clone 1A8), F480 (clone BM8), CD8a (clone 53-6.7), CD4 (clone RM4-5) antibodies purchased from BioLegend, eBioscience or BD Biosciences. Cells were then fixed in Fixation/Permeabilization buffer (eBioscience) and stained with antibodies against intracellular proteins, including FoxP3 (NRRF-30) and Granzyme B (clone GB11). The antibodies were purchased from BD Biosciences, Biolegend, and R&D Systems and used in staining. […]

arginase-1 (Arg1) = assay: Quantitative real-time PCR of Arginase 1 in J774M cells; assay type: cell-based; settings: 0.5 μM, 1 μM, 2 μM vs untreated control (p=0.003; 0.0041; 0.0043)
Protocol: Quantitative real-time PCR: mRNA was extracted from J774M cells that were treated±entinostat using standard Trizol protocols. RNA concentration and purity were determined through measurement of A260/280 ratios with a Synergy Hi Multi-Mode reader. cDNA was prepared using the iScript kit (Bio-Rad) and qPCR was performed using an Applied Biosystems 7900HT fast real time PCR system. Sequence Detection Systems software v2.3 was used to identify the cycle threshold (Ct) values and to generate gene expression curves. Data were normalized to Gapdh expression and fold change was calculated. The primers used for target genes were: Gapdh_foward 5′-[…]-3′, Gapdh_reverse 5′-[…]-3′ (SEQ ID NO:1), Arginase 1_forward 5′-[…]-3′ (SEQ ID NO:2), and Arginase 1_reverse 5′-[…]-3′ (SEQ ID NO:3).

J774M cells = assay: J774M cell proliferation or viability; assay type: cell-based; settings: 0.01-5 μM, up to 48 hours
Protocol: The J774M cell line was cultured with DMEM (Corning) media with 10% fetal bovine serum (Corning) and 1% Pen/Strep (Life Technologies). Cells were incubated in 37° C. and 5% CO2.

chemokines and cytokines = assay: Proteome Profiler Mouse XL Cytokine array (Ary028) of tumor lysates and serum; assay type: in vivo
Protocol: Proteome Profile: Tumor tissue was homogenized in PBS containing protease inhibitors. Following homogenization, Triton X-100 was added to a final concentration of 1%, frozen at −80° C., thawed, centrifuged as 10,000 g for 5 minutes, quantified and assayed according to the manufacturer's protocol. Blood samples were collected from mice in each cohort, allowed to clot for 2 hours at room temperature, centrifuged at 2000 g for 15 minutes. Serum samples were frozen at −80° C. until time of analysis at which time they were run according to manufacturer's protocol. All samples were processed and run on R&D Systems mouse XL cytokine array kit (Ary028).

[5] = tested on: RENCA-Luc murine renal cell carcinoma; assay: In vivo tumor growth (RENCA), orthotopic RENCA-Luc syngeneic model; parameters: species or system Balb/c mice; settings: vs control; entinostat 5 mg/kg oral 5 days/week, anti-PD-1 10 mg/kg I.P.; end-point tumor weight
Protocol: Cell lines: The RENCA-Luc murine renal cell carcinoma cell line, purchased from American Type Culture Collection (National Cancer Institute), was stably transfected with a luciferase reporter in the Pili laboratory. Cells were cultured using RPMI 1640 (Corning) with 10% fetal bovine serum (Corning) and 1% Pen/Strep (Life Technologies). Cells were incubated in an incubator maintained at 37° C. and 5% CO2. 75-80% confluent cells were harvested for orthotopic injection into the kidney of Balb/c mice using 0.25% Trypsin (Corning) and suspended in a 1:1 ratio of MATRIGEL® (Corning) and DPBS (Gibco).
In vivo tumor growth (RENCA): All procedures were performed and approved in strict accordance with the Institutional Animal Care and Use Committee (IACUC) at Roswell Park Cancer Institute, Indiana University School of Medicine, and with the NIH Guide for the Care and Use of Laboratory Animal guidelines.
Female five- to six-week old Balb/c mice (Charles Rivers) were maintained in a temperature controlled room with a 12/12 hour light/dark schedule and food provided ad libitum. 70-80% confluent RENCA-Luc cells were harvested using 0.25% Trypsin (Corning) and suspended in a 1:1 ratio of matrigel (Corning) and HBSS (Gibco), 10 μl containing 1×10^4 cells was injected under the renal capsule. […]

[6] = tested on: advanced renal cell carcinoma; settings: advanced renal cell carcinoma patients, cited from earlier work

Compound | tumor infiltrating G-MDSC population ([1]; TME, vs control) | tumor infiltrating M-MDSC population ([1]; TME, vs control) | circulating G-MDSCs ([1]; blood) | circulating M-MDSCs ([1]; blood) | iNOS fold change (iNOS) | FoxP3 protein levels (MFI) in circulating CD4+FoxP3+ cells [2] | CD8+ T cell proliferation in co-culture with treated J774M cells [3] | capacity of MDSCs (G-MDSC or M-MDSC) to inhibit CD8+ T cell proliferation ([4]; MDSC to T cell ratios 1:1, 0.5:1, 0.25:1, co-culture 16-18 hours, mice treated in vivo, p≤0.01) | CD8+ T cell proliferation in co-culture with MDSCs from treated mice ([4]; co-culture 16-18 hours, similar to control stimulated CD8+ T cells alone) [%] | increase in Granzyme B production by CD8+ T cells ([4]; compared to co-culture with MDSCs from untreated tumor-bearing mouse, p<0.01) | arginase-1 (Arg1) expression (arginase-1 (Arg1)) | J774M cell proliferation or viability (J774M cells) | circulating pro-tumor associated chemokines and cytokines (chemokines and cytokines; serum vs control, adiponectin, angiopoietin-2, chitinase 3-like 1, CCL12, C5, c-reactive protein, IL-6, pentraxins 2/3, periostin, CCL17, M-CSF, GM-CSF, MMP-2, MMP-9, CCL2, osteoprotegerin, VCAM) | MDSC associated trafficking/accumulation and expansion/activation cytokines in the TME (chemokines and cytokines; tumor lysates vs control, CCL2, VCAM-1/CD106, Angiopoietin-2, G-CSF, GM-CSF, IL-1β, IL-10) | anti-tumor chemokines and cytokines in the TME (chemokines and cytokines; tumor lysates vs control, CXCL10/IP-10, E-selectin, IL-1ra, IL-4, IL-12p40) | upregulation of anti-tumor cytokines/chemokines (chemokines and cytokines; vs control cohort, CXCL9, CXCL10, IL-4, IL-13, E-selectin, IL-12p40) | tumor growth inhibition [5] [%] | treatment related adverse events [6] | increase in overall survival ([6]; compared to standard of care, everolimus) [%]
Nc1ccccc1NC(=O)c1ccc(CNC(=O)OCc2cccnc2)cc1 [entinostat, Pyridin-3-ylmethyl N-[[4-[(2-aminophenyl)carbamoyl]phenyl]methyl]carbamate] | slight increase | slight increase | slight decreases | significant increases | inconclusive results | significant decrease | significant increase | significant reduction | ~90 | approximately 40% | significant inhibition | no significant alteration | Significant decreases | significant reduction | significant upregulation | note observed | 52.6 | – | –
nivolumab: a PD-1 inhibitor, immune checkpoint inhibitor approved for advanced renal cell carcinoma | – | – | – | – | – | – | – | – | – | – | – | – | – | – | – | – | – | limited treatment related adverse events | 78
